Assay results: US20250354297A1, “SHIELDED SMALL NUCLEOTIDES FOR INTRACELLULAR BARCODING” (BOARD OF REGENTS, THE UNIVERSITY OF TEXAS SYSTEM, priority 2021, published 2025)

Assays:
CD19.28z CAR T cells [1] = experiment: 8-plex CAR T SSN-seq ex vivo (infusion product); type: cell-based, human; details: 5 μM TWS119, 0.15 μM JQ1; CCR7, SELL, TCF7
Procedure: Pooled/sorted cells were processed for single-cell RNA sequencing at using Chromium Next GEM Single Cell 3′ Reagent Kit V3.1 (with feature barcoding technology for CRISPR screening), following the manufacturer's protocol. For enrichSSN amplification, a primer specific to the 5′ shield sequence was used (see FIG. 16A) and PCR was performed following 10× Genomics protocol for “Feature PCR” with 15 or 19 amplification cycles. Pooled libraries (the 3′ gene expression library and the sgRNA/SSN library, at a 4:1 ratio) were sequenced with a NovaSeq6000 SP-100 flow cell (Illumina) for each scRNA-seq experiment.
scRNA-seq data were preprocessed. In brief, gene expressing reads were aligned to the GRCh38 genome (human) and/or mm 10 genome (mouse) using the 10× Genomics Cell Ranger (version 6.0.2, 6.1.1 and 6.1.2), with the cellranger count pipeline. sgRNA/SSN counts were retrieved by cellranger count using the pattern containing unique group barcodes and constant sequences derived from the sgRNA/SSN scaffold. […] To ensure a fair quantitative comparison, sgRNA/SSN UMI counts shown across different experiments were restricted to the raw output of cellranger count. Filtered feature-barcode matrices were further analyzed in R using Seurat (version 4.0.3). In general, genes detected in less than three cells and cells expressing <200 or >7,000 RNA features (genes) were filtered out. […]

CD19.28z CAR T cells [2] = experiment: Flow cytometry of T cell memory markers CCR7 and CD45RA in 8-plex CAR T cells; type: cell-based, human; details: 5 μM TWS119, 0.15 μM JQ1, day 8
Procedure: 8-plex CAR T SSN-seg ex vivo (infusion product). Twenty-four hours after activation, human primary T cells were transduced with lentiviral vectors (see FIG. 16B). Transduced T cells were cultured in the presence of 5 μM TWS119, 0.15 μM JQ1, the combination of TWS119 and JQ1 (Combo), or DMSO (Mock) controls. CAR T cells in four treatment groups were expanded in culture media supplemented with IL2 or IL7 plus IL15 (denoted as IL7×15) cytokines. Culture media containing small molecule inhibitors and cytokines were replenished every other day. CAR T cells were maintained at a concentration of 0.5 to 1×10^6 cells per ml. On day 8, expression of T cell memory makers (CCR7 and CD45RA) was evaluated in all treatment groups using flow cytometry. Then, CAR T cells in all groups were counted and pooled at equal ratios. To enrich CAR^+ population a cell surface reporter NGFR^+ was utilized to FACS purify CAR T cells before scRNA-seq analysis. Aliquots of the pooled samples were also injected into tumor mice. Remaining CAR T cells were cryopreserved in CryoStor CS10 media (Stem Cell Technologies).

Structure (SMILES) | enriched genes in transcriptome analysis (CD19.28z CAR T cells [1]) | naïve and central memory markers (CCR7, CD45RA) (CD19.28z CAR T cells [2])
Cc1sc2c(c1C)C(c1ccc(Cl)cc1)=N[C@@H](CC(=O)OC(C)(C)C)c1nnc(C)n1-2 [JQ1] | enriched in memory-related genes | enrichment of naïve and central memory markers
Nc1cccc(-c2cc3c(Oc4cccc(O)c4)ncnc3[nH]2)c1 [TWS119] | enriched in memory-related genes | enrichment of naïve and central memory markers
